Experimental data: patent publication US20260327191A1, “GSK3a INHIBITORS AND METHODS OF USE THEREOF” (Blueprint Medicines Corporation, priority 2023, published 2026)
pIC50: −log10 of the molar value.

Columns and labels:
[1] = molecular target: T1, GSK3A (Homo sapiens, UniProt P49840); assay: NanoBRET cellular target engagement assay, Nanoluc-GSK3A in HEK293 cells; format: cell-based; conditions: NanoBRET GSK3α IC50, HEK293 cells, tracer K-8, 2 hours, 37° C
T1 construct: expressed in transfected cells
Description: (§1) In the assay, HEK293 cells stably expressing either Nanoluc-GSK3A or Nanoluc-GSK3B were maintained in culture media and seeded, using a multidrop dispenser, at a density of 5×10^3 cells per well in 384-well white plates with 100 ng/ml doxycycline (Sigma) overnight.
(§2) Compound was first diluted in DMSO to generate a 9-point serial dilution then diluted to 10× final concentration in Opti-MEM™ (Gibco). After overnight incubation, cell medium was aspirated from the seeded cells using a microplate automatic washer, then 27 μL of pre-warmed Opti-MEM™ with kinase tracer (K-8) and 3 μL of Opti-MEM™ diluted DMSO or compounds were added per well. Plates were protected from light, mixed in an orbital shaker for 3 min at RT and incubated at 37° C., 5% CO2 in a humidified incubator for 2 hours. After acclimation at RT for 15 min, 15 μL of 3× complete NanoBRET™ Nano-Glo Substrate/Inhibitor (Promega) was added per well. Plates were mixed in an orbital shaker for 3 min at RT and incubated for an additional 30 min. Donor emission at 460 nm and acceptor emission at 647 nm were measured in EnVision multilabel plate reader (Perkin Elmer).

[2] = molecular target: T2, GSK3B (Homo sapiens, UniProt P49841); assay: NanoBRET cellular target engagement assay, Nanoluc-GSK3B in HEK293 cells; format: cell-based; set-up: expressed in transfected cells; conditions: NanoBRET GSK3β IC50, HEK293 cells, tracer K-8, 2 hours, 37° C
Description: as §1, §2

[3] = molecular target: T2, GSK3B; assay: In vitro enzymatic activity assay, GSK3β; format: biochemical; set-up: Full length human GSK3α or GSK3B expressed as N-terminal GST fusion proteins; GST (N); purchased Carna Biosciences (Japan); host or cells: baculovirus host; conditions: 1.0 mM ATP, 1.0 μM peptide substrate, 120 min, 25° C, read-out: Enzyme GSK3β (IC50)
Description: (§3) Full length human GSK3α or GSK3B expressed as N-terminal GST fusion proteins in baculovirus host were purchased from Carna Biosciences (Japan). The kinase was pre-incubated with ATP (adenosine-5′-triphosphate) for 45 min, then incubated with tested compounds for another 45 min in assay buffer that contains 100 mM HEPES (N-2-hydroxyethylpiperazine-N′-2-ethanesulfonic acid), pH 7.5, 10 mM MgCl2, 1.0 mM DTT, and 0.015% Briji-35. […] Percent inhibition was plotted against compound concentration to generate 10-point dose response curve with 3-fold serial dilution starting from 10 μM. IC50 value was determined from the 4-parameter logistic curve fitting.

[4] = molecular target: T3, human GSK3α (Homo sapiens, UniProt P49840); assay: In vitro enzymatic activity assay, GSK3α; format: biochemical; conditions: 1.0 mM ATP, 1.0 μM peptide substrate, 120 min, 25° C, read-out: Enzyme GSK3α (IC50)
T3 construct: Full length human GSK3α or GSK3B expressed as N-terminal GST fusion proteins; GST (N); purchased Carna Biosciences (Japan); host or cells: baculovirus host
Description: as §3

T3 sequence (P49840 whole entry, the tested form may be a part): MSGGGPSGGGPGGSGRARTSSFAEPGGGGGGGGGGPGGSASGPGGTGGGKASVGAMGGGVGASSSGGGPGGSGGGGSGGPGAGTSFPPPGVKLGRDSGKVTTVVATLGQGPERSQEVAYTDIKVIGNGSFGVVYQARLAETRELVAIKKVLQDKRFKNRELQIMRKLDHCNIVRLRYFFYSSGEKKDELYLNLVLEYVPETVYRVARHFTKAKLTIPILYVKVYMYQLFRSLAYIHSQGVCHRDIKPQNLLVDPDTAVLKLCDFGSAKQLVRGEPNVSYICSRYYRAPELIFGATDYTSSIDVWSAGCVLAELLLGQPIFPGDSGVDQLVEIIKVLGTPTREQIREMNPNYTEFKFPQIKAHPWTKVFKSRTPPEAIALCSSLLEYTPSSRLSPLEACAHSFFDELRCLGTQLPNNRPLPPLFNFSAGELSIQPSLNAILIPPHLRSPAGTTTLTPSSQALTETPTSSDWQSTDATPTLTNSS
T1 sequence (P49840 whole entry): as the sequence (P49840 whole entry, the tested form may be a part) above
T2 sequence (P49841 whole entry): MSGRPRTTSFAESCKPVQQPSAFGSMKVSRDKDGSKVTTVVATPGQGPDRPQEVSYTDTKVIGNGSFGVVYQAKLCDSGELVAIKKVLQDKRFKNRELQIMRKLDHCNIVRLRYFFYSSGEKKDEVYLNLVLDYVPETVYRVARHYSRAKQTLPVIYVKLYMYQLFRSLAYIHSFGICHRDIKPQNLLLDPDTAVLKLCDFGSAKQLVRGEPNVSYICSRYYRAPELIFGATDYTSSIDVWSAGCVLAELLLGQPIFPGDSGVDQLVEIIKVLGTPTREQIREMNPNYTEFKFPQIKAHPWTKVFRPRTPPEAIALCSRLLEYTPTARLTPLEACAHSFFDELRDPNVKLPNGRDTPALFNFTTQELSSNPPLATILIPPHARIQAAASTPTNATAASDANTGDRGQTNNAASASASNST

In the case of `Nc1ncn(-c2c(Cl)cc(OC(F)(F)F)cc2Cl)c(=O)c1C(=O)Nc1cncc([C@@H]2CCCN2)c1` [Example 109, (S)-4-amino-1-(2,6-dichloro-4-(trifluoromethoxy)phenyl)-6-oxo-N-(5-(pyrrolidin-2-yl)pyridin-3-yl)-1,6-dihydropyrimidine-5-carboxamide], the pIC50 [1] was 8.08, the pIC50 [2] was 6.25 and the pIC50 [3] was 6.10. For the same compound, the pIC50 [4] was 7.81.

`COCc1cc(Cl)c(-n2cnc(N)c(C(=O)Nc3cncc(CNCCO)c3)c2=O)c(Cl)c1` [Example 63, 4-amino-1-(2,6-dichloro-4-(methoxymethyl)phenyl)-N-(5-(((2-hydroxyethyl)amino)methyl)pyridin-3-yl)-6-oxo-1,6-dihydropyrimidine-5-carboxamide] was tested, and the pIC50 [1] was 8.36, the pIC50 [2] was 6.63 and the pIC50 [3] was 6.68. It also gave a pIC50 [4] of 8.35.

`CCOCc1cc(C)c(-n2cnc(N)c(C(=O)Nc3cncc(C(C)N)c3)c2=O)c(C)c1` (single isomer, unassigned) [Example 130, (R)-4-amino-N-(5-(1-aminoethyl)pyridin-3-yl)-1-(4-(ethoxymethyl)-2,6-dimethylphenyl)-6-oxo-1,6-dihydropyrimidine-5-carboxamide or (S)-4-amino-N-(5-(1-aminoethyl)pyridin-3-yl)-1-(4-(ethoxymethyl)-2,6-dimethylphenyl)-6-oxo-1,6-dihydropyrimidine-5-carboxamide] was tested, and the pIC50 [1] was 8.28, the pIC50 [2] was 6.34 and the pIC50 [3] was 6.23. The pIC50 [4] was 7.87.

`CCCOc1cc(C)c(-n2cnc(N)c(C(=O)Nc3cncc(C(C)N)c3)c2=O)c(C)c1` (single isomer, unassigned) [Example 126, (R)-4-amino-N-(5-(1-aminoethyl)pyridin-3-yl)-1-(2,6-dimethyl-4-propoxyphenyl)-6-oxo-1,6-dihydropyrimidine-5-carboxamide or (S)-4-amino-N-(5-(1-aminoethyl)pyridin-3-yl)-1-(2,6-dimethyl-4-propoxyphenyl)-6-oxo-1,6-dihydropyrimidine-5-carboxamide] gave a pIC50 [1] of 8.10, a pIC50 [2] of 6.30 and a pIC50 [3] of 6.15. It also gave a pIC50 [4] of 7.83.

`COCc1cc(C)c(-n2cnc(N)c(C(=O)Nc3cncc(C4CNC(=O)CN4)c3)c2=O)c(C)c1` (single isomer, unassigned) [Example 159, (R)-4-amino-1-(4-(methoxymethyl)-2,6-dimethylphenyl)-6-oxo-N-(5-(5-oxopiperazin-2-yl)pyridin-3-yl)-1,6-dihydropyrimidine-5-carboxamide or (S)-4-amino-1-(4-(methoxymethyl)-2,6-dimethylphenyl)-6-oxo-N-(5-(5-oxopiperazin-2-yl)pyridin-3-yl)-1,6-dihydropyrimidine-5-carboxamide] gave a pIC50 [1] of 7.11, a pIC50 [2] of 5.24 and a pIC50 [3] of 5.68. The pIC50 [4] was 7.04.

`COC[C@H](N)c1cncc(NC(=O)c2c(N)ncn(-c3c(Cl)cc(OC(F)F)cc3Cl)c2=O)c1` (single isomer, unassigned) [Example 47, (R)-4-amino-N-(5-(1-amino-2-methoxyethyl)pyridin-3-yl)-1-(2,6-dichloro-4-(difluoromethoxy)phenyl)-6-oxo-1,6-dihydropyrimidine-5-carboxamide or (S)-4-amino-N-(5-(1-amino-2-methoxyethyl)pyridin-3-yl)-1-(2,6-dichloro-4-(difluoromethoxy)phenyl)-6-oxo-1,6-dihydropyrimidine-5-carboxamide] gave a pIC50 [1] of 8.54, a pIC50 [2] of 6.76 and a pIC50 [3] of 6.64. It also gave a pIC50 [4] of 8.49.

`CCC[C@@H](N)c1cncc(NC(=O)c2c(N)ncn(-c3c(C)cc(COC)cc3C)c2=O)c1` [Example 176, (R)-4-amino-N-(5-(1-aminobutyl)pyridin-3-yl)-1-(4-(methoxymethyl)-2,6-dimethylphenyl)-6-oxo-1,6-dihydropyrimidine-5-carboxamide] was tested, and the pIC50 [1] was 8.59, the pIC50 [2] was 6.72 and the pIC50 [3] was 6.56. The pIC50 [4] was 8.29.

For `Nc1ncn(-c2c(Cl)cccc2Cl)c(=O)c1C(=O)Nc1cncc([C@H]2CCOCCN2)c1` (single isomer, unassigned) [Example 215, (R)—N-(5-(1,4-oxazepan-5-yl)pyridin-3-yl)-4-amino-1-(2,6-dichlorophenyl)-6-oxo-1,6-dihydropyrimidine-5-carboxamide or (S)—N-(5-(1,4-oxazepan-5-yl)pyridin-3-yl)-4-amino-1-(2,6-dichlorophenyl)-6-oxo-1,6-dihydropyrimidine-5-carboxamide], the pIC50 [1] was 8.07, the pIC50 [2] was 6.16 and the pIC50 [3] was 6.30. It also gave a pIC50 [4] of 8.14.

Compound `CNC(C)c1cncc(NC(=O)c2c(N)ncn(-c3c(Cl)cc(OC)cc3Cl)c2=O)c1` (single isomer, unassigned) [Example 18, (S)-4-amino-1-(2,6-dichloro-4-methoxyphenyl)-N-(5-(1-(methylamino)ethyl)pyridin-3-yl)-6-oxo-1,6-dihydropyrimidine-5-carboxamide or (R)-4-amino-1-(2,6-dichloro-4-methoxyphenyl)-N-(5-(1-(methylamino)ethyl)pyridin-3-yl)-6-oxo-1,6-dihydropyrimidine-5-carboxamide] has a pIC50 [1] of 8.15, a pIC50 [2] of 6.37 and a pIC50 [3] of 6.21. For the same compound, the pIC50 [4] was 7.92.

With `CCc1cc(C)c(-n2cnc(N)c(C(=O)Nc3cncc([C@@H](C)N)c3)c2=O)c(C)c1` (single isomer, unassigned) [Example 218, (R)-4-amino-N-(5-(1-aminoethyl)pyridin-3-yl)-1-(4-ethyl-2,6-dimethylphenyl)-6-oxo-1,6-dihydropyrimidine-5-carboxamide or (S)-4-amino-N-(5-(1-aminoethyl)pyridin-3-yl)-1-(4-ethyl-2,6-dimethylphenyl)-6-oxo-1,6-dihydropyrimidine-5-carboxamide] the pIC50 [1] was 8.25, the pIC50 [2] was 6.40 and the pIC50 [3] was 6.38. It also gave a pIC50 [4] of 7.97.

`COC[C@@H](N)c1cncc(NC(=O)c2c(N)ncn(-c3c(Cl)cc(OC)cc3Cl)c2=O)c1` [Example 77, (S)-4-amino-N-(5-(1-amino-2-methoxyethyl)pyridin-3-yl)-1-(2,6-dichloro-4-methoxyphenyl)-6-oxo-1,6-dihydropyrimidine-5-carboxamide] showed a pIC50 [1] of 8.46, a pIC50 [2] of 6.71 and a pIC50 [3] of 6.82. For the same compound, the pIC50 [4] was 8.66.

`COC[C@@H](N)c1cncc(NC(=O)c2c(N)ncn(-c3c(Cl)cc(C#N)cc3Cl)c2=O)c1` (single isomer, unassigned) [Example 44, (S)-4-amino-N-(5-(1-amino-2-methoxyethyl)pyridin-3-yl)-1-(2,6-dichloro-4-cyanophenyl)-6-oxo-1,6-dihydropyrimidine-5-carboxamide or (R)-4-amino-N-(5-(1-amino-2-methoxyethyl)pyridin-3-yl)-1-(2,6-dichloro-4-cyanophenyl)-6-oxo-1,6-dihydropyrimidine-5-carboxamide] showed a pIC50 [1] of 8.12, a pIC50 [2] of 6.29 and a pIC50 [3] of 6.42. For the same compound, the pIC50 [4] was 8.33.

Work on `CN[C@H](C)c1cccc(NC(=O)c2c(N)ncn(-c3c(C)cc(OC)cc3Cl)c2=O)c1` (atropisomer, axis not shown) [Example 2, (R)-4-amino-1-((S)-2-chloro-4-methoxy-6-methylphenyl)-N-(3-(1-(methylamino)ethyl)phenyl)-6-oxo-1,6-dihydropyrimidine-5-carboxamide] yielded a pIC50 [1] of 8.31, a pIC50 [2] of 6.48 and a pIC50 [3] of 6.40. For the same compound, the pIC50 [4] was 8.15.

`Cc1cc(C(F)CF)cc(C)c1-n1cnc(N)c(C(=O)Nc2cncc([C@H]3CCCCN3)c2)c1=O` (single isomer, unassigned) [Example 111, 4-amino-1-(4-((R)-1,2-difluoroethyl)-2,6-dimethylphenyl)-6-oxo-N-(5-((R)-piperidin-2-yl)pyridin-3-yl)-1,6-dihydropyrimidine-5-carboxamide or 4-amino-1-(4-((S)-1,2-difluoroethyl)-2,6-dimethylphenyl)-6-oxo-N-(5-((R)-piperidin-2-yl)pyridin-3-yl)-1,6-dihydropyrimidine-5-carboxamide] was tested, and the pIC50 [1] was 8.70 and the pIC50 [4] was 8.52.
